# Data as given in ChEMBL document CHEMBL1909046, “DrugMatrix in vitro pharmacology data”.
# pIC50, pKi: −log10 of the molar value.
# Key:
# Progesterone receptor = target: T1, Progesterone receptor (Bos taurus, UniProt Q690N0); assay: DRUGMATRIX: Progesterone radioligand binding (ligand: [3H] R-5020); assay type: tissue-based, Uterus; conditions: Not Active = under 50% inhibition at 10 µM; for pIC50: read-out: IC50; for pKi: read-out: Ki
# T1 sequence (Q690N0 whole entry): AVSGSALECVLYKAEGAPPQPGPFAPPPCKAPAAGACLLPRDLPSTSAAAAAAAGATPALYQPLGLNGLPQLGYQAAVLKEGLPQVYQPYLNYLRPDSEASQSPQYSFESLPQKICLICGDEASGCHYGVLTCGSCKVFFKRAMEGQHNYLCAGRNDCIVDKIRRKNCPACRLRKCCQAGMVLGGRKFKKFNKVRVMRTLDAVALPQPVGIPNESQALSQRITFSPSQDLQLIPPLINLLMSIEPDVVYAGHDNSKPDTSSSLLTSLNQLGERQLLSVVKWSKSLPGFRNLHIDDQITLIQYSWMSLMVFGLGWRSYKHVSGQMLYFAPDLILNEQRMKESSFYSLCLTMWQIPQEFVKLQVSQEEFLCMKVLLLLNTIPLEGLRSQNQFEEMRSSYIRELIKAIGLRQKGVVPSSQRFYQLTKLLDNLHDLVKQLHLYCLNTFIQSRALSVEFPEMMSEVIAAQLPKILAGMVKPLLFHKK
# [1] = DRUGMATRIX: Glutamate, Kainate radioligand binding (ligand: [3H] Kainic acid); assay type: cell membranes, Rattus norvegicus, Wistar, Brain, Membrane; conditions: Not Active = under 50% inhibition at 10 µM
# [2] = target: cGMP-specific 3',5'-cyclic phosphodiesterase (Homo sapiens, UniProt O76074); assay: DRUGMATRIX: Phosphodiesterase PDE5 enzyme inhibition (substrate: [3H]cGMP + cGMP); assay type: tissue-based; conditions: platelet; Not Active = under 50% inhibition at 10 µM
# Nitric oxide synthase 1 = Nitric oxide synthase 1 (Rattus norvegicus, UniProt P29476); assay type: tissue-based, Cerebellum; note: in other assays of this panel Not Active means under 50% inhibition at 10 µM
# Cytochrome P450 3A4 = Cytochrome P450 3A4 (Homo sapiens, UniProt P08684); conditions: bti-tn-5b1-4; note: in other assays of this panel Not Active means under 50% inhibition at 10 µM
# Sequence of Cytochrome P450 3A4 (P08684 whole entry): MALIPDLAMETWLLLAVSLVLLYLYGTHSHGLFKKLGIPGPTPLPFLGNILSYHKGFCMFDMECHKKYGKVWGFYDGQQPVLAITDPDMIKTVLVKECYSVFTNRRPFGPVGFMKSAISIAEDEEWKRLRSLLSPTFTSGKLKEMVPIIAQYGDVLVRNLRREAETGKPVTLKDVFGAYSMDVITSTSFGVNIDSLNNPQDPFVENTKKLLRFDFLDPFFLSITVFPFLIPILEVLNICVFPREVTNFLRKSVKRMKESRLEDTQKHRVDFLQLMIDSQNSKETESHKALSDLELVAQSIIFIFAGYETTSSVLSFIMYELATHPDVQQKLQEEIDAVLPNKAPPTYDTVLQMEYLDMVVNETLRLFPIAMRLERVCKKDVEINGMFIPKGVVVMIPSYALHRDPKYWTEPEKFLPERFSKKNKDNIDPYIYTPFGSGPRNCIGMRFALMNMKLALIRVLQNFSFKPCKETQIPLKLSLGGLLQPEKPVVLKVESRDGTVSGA
# Sequence of Nitric oxide synthase 1 (P29476 whole entry): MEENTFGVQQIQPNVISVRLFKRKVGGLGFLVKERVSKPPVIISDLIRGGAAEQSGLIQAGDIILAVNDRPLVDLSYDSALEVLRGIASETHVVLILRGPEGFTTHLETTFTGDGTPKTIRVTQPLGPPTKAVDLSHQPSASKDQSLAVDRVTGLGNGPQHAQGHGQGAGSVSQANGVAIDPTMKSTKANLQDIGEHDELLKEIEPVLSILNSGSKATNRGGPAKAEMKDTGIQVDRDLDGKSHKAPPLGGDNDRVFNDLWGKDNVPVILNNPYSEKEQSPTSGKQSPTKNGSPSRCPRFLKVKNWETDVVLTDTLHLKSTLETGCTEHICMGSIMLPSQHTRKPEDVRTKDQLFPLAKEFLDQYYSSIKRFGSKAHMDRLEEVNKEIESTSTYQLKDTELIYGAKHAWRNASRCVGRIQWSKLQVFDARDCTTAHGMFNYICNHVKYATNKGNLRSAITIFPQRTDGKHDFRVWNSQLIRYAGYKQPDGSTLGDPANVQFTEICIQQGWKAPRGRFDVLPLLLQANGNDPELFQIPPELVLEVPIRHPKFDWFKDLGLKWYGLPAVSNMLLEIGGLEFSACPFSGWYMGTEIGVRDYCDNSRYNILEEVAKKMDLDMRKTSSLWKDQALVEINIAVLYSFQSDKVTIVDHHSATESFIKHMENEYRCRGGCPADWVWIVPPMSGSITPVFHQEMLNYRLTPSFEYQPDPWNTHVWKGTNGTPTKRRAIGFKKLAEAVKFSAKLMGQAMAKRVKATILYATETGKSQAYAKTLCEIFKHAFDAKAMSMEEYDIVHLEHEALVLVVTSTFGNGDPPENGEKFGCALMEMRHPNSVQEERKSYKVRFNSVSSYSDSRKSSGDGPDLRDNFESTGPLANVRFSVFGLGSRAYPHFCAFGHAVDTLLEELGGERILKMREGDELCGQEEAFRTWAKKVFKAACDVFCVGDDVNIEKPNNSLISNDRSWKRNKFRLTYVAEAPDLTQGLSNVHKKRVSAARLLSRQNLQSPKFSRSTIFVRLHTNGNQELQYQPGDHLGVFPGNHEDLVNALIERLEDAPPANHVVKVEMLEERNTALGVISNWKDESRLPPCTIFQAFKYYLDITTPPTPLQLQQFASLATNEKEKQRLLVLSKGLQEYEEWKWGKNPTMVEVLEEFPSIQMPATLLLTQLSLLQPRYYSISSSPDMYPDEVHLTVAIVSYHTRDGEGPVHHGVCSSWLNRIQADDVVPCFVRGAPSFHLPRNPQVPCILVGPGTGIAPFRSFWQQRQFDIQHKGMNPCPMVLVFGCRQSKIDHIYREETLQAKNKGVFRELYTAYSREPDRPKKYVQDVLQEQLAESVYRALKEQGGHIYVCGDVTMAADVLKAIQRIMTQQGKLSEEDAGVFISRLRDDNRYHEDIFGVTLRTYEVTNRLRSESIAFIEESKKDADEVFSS
Compound,IC50 (Progesterone receptor),IC50 [1],Ki [1],IC50 [2],IC50 (Nitric oxide synthase 1),IC50 (Cytochrome P450 3A4),Ki (Cytochrome P450 3A4),pIC50 (Progesterone receptor),pKi (Progesterone receptor)
c1ccc(Nc2ccc(Nc3ccccc3)cc2)cc1,Not Active,Not Active,Not Active,Not Active,Not Active,Not Active,Not Active,–,–
COc1cc2c3cc1Oc1cc(ccc1O)C[C@@H]1c4c(cc(OC)c(O)c4Oc4ccc(cc4)C[C@@H]3N(C)CC2)CC[N+]1(C)C.[Cl-],Not Active,Not Active,Not Active,Not Active,Not Active,Not Active,Not Active,–,–
O=C1CC[C@@H](N2C(=O)c3ccccc3C2=O)C(=O)N1,Not Active,Not Active,Not Active,Not Active,Not Active,Not Active,Not Active,–,–
CC[C@@]1(O)C[C@H](O[C@H]2C[C@H](N(C)C)[C@H](O[C@H]3C[C@H](O)[C@H](O[C@H]4CCC(=O)[C@H](C)O4)[C@H](C)O3)[C@H](C)O2)c2c(cc3c(c2O)C(=O)c2c(O)cccc2C3=O)[C@H]1C(=O)OC [ACLARUBICIN],Not Active,Not Active,Not Active,Not Active,Not Active,Not Active,Not Active,–,–
Nc1nc2c(ncn2COCCO)c(=O)[nH]1 [ACYCLOVIR],Not Active,Not Active,Not Active,Not Active,Not Active,Not Active,Not Active,–,–
Cc1c(C)c2c(c(C)c1O)CC[C@@](C)(CCC[C@H](C)CCC[C@H](C)CCCC(C)C)O2 [ALPHA-TOCOPHEROL],Not Active,Not Active,Not Active,Not Active,Not Active,Not Active,Not Active,–,–
CN(C)c1nc(N(C)C)nc(N(C)C)n1 [ALTRETAMINE],–,Not Active,Not Active,Not Active,Not Active,–,–,–,–
NCCCCCC(=O)O [AMINOCAPROIC ACID],Not Active,Not Active,Not Active,Not Active,Not Active,Not Active,Not Active,–,–
Cc1ccc(/N=C/N(C)/C=N/c2ccc(C)cc2C)c(C)c1 [AMITRAZ],Not Active,Not Active,Not Active,Not Active,Not Active,Not Active,Not Active,–,–
CCOC(=O)C1=C(COCCN)NC(C)=C(C(=O)OC)C1c1ccccc1Cl (stereo unspecified) [AMLODIPINE],Not Active,Not Active,Not Active,Not Active,Not Active,Not Active,Not Active,–,–
CNCCc1ccccn1 [BETAHISTINE],Not Active,Not Active,Not Active,Not Active,Not Active,Not Active,Not Active,–,–
CC(C)C(Br)C(=O)NC(N)=O (stereo unspecified) [BROMISOVALUM],Not Active,Not Active,Not Active,Not Active,Not Active,Not Active,Not Active,–,–
CCCC1O[C@@H]2C[C@H]3[C@@H]4CCC5=CC(=O)C=C[C@]5(C)[C@H]4[C@@H](O)C[C@]3(C)[C@]2(C(=O)CO)O1 (stereo partly specified) [BUDESONIDE],–,Not Active,Not Active,Not Active,Not Active,Not Active,Not Active,6.68,7.57
O=C(O)CCCc1ccc(N(CCCl)CCCl)cc1 [CHLORAMBUCIL],Not Active,Not Active,Not Active,Not Active,Not Active,Not Active,Not Active,–,–
CN(C)CCCN1c2ccccc2Sc2ccc(Cl)cc21 [CHLORPROMAZINE],Not Active,Not Active,Not Active,Not Active,Not Active,–,–,–,–
C[C@H](CCC(=O)O)[C@H]1CC[C@H]2[C@@H]3[C@H](O)C[C@@H]4C[C@H](O)CC[C@]4(C)[C@H]3C[C@H](O)[C@]12C [CHOLIC ACID],Not Active,Not Active,Not Active,Not Active,Not Active,Not Active,Not Active,–,–
Cc1cc(C2CCCCC2)n(O)c(=O)c1 [CICLOPIROX],Not Active,Not Active,Not Active,Not Active,Not Active,Not Active,Not Active,–,–

Compound,IC50 (Progesterone receptor),IC50 [1],Ki [1],IC50 [2],IC50 (Nitric oxide synthase 1),IC50 (Cytochrome P450 3A4),Ki (Cytochrome P450 3A4),pIC50 (Progesterone receptor),pKi (Progesterone receptor)
CC(C)(Oc1ccc(Cl)cc1)C(=O)O [CLOFIBRIC ACID],Not Active,Not Active,Not Active,Not Active,Not Active,–,–,–,–
Clc1cccc(Cl)c1NC1=NCCN1 [CLONIDINE],Not Active,Not Active,Not Active,Not Active,Not Active,Not Active,Not Active,–,–
Cc1onc(-c2ccccc2Cl)c1C(=O)N[C@@H]1C(=O)N2[C@@H]1SC(C)(C)[C@@H]2C(=O)O [CLOXACILLIN],Not Active,Not Active,Not Active,Not Active,Not Active,Not Active,Not Active,–,–
CC1CC(OC(=O)C(O)c2ccccc2)CC(C)(C)C1 (stereo unspecified) [CYCLANDELATE],Not Active,Not Active,Not Active,Not Active,Not Active,Not Active,Not Active,–,–
Cc1c(O)c(=O)ccn1C [DEFERIPRONE],Not Active,Not Active,Not Active,Not Active,Not Active,Not Active,Not Active,–,–
CC(=O)O[C@@]12CO[C@@H]1C[C@H](O)[C@@]1(C)C(=O)[C@H](O)C3=C(C)[C@@H](OC(=O)[C@H](O)[C@@H](NC(=O)OC(C)(C)C)c4ccccc4)C[C@@](O)([C@@H](OC(=O)c4ccccc4)[C@H]21)C3(C)C.O.O.O [DOCETAXEL],Not Active,Not Active,Not Active,Not Active,Not Active,–,–,–,–
COc1cc2nc(N3CCN(C(=O)C4COc5ccccc5O4)CC3)nc(N)c2cc1OC (stereo unspecified) [DOXAZOSIN],Not Active,Not Active,Not Active,Not Active,Not Active,–,–,–,–
C[C@H]1c2cccc(O)c2C(=O)C2=C(O)[C@]3(O)C(=O)C(C(N)=O)=C(O)[C@@H](N(C)C)[C@@H]3[C@@H](O)[C@@H]21.O [DOXYCYCLINE],Not Active,Not Active,Not Active,Not Active,Not Active,Not Active,Not Active,–,–
O=C(CCCN1CC=C(n2c(=O)[nH]c3ccccc32)CC1)c1ccc(F)cc1 [DROPERIDOL],Not Active,Not Active,Not Active,Not Active,Not Active,Not Active,Not Active,–,–
OC(Cn1cncn1)(Cn1cncn1)c1ccc(F)cc1F [FLUCONAZOLE],Not Active,Not Active,Not Active,Not Active,Not Active,Not Active,Not Active,–,–
CC(C)C(=O)Nc1ccc([N+](=O)[O-])c(C(F)(F)F)c1 [FLUTAMIDE],Not Active,Not Active,Not Active,Not Active,Not Active,Not Active,Not Active,–,–
N=C(N)NCCN1CCCCCCC1 [GUANETHIDINE],Not Active,Not Active,Not Active,Not Active,Not Active,–,–,–,–
CC1(C)O[C@@H]2C[C@H]3[C@@H]4CCC5=CC(=O)CC[C@]5(C)[C@@]4(F)[C@@H](O)C[C@]3(C)[C@]2(C(=O)CCl)O1 [HALCINONIDE],–,Not Active,Not Active,Not Active,Not Active,Not Active,Not Active,9.03,9.92
O=c1[nH]c(=O)n([C@H]2C[C@H](O)[C@@H](CO)O2)cc1I [IDOXURIDINE],Not Active,Not Active,Not Active,Not Active,Not Active,Not Active,Not Active,–,–
CCC(C)n1ncn(-c2ccc(N3CCN(c4ccc(OCC5COC(Cn6cncn6)(c6ccc(Cl)cc6Cl)O5)cc4)CC3)cc2)c1=O (stereo unspecified) [ITRACONAZOLE],Not Active,Not Active,Not Active,Not Active,Not Active,–,–,–,–
CC1(C)S[C@@H]2[C@H](NC(=O)Cc3ccccc3)C(=O)N2[C@H]1C(=O)O [PENICILLIN G],Not Active,Not Active,Not Active,Not Active,Not Active,–,–,–,–
CN(C)CCCN1c2ccccc2Sc2ccccc21 [PROMAZINE],Not Active,Not Active,Not Active,Not Active,Not Active,–,–,–,–
